We go through 14 molecules from patent publication US7452691B2, “Device and method for detecting antibiotic inactivating enzymes” (priority 2005, dated 2008).

Converted amounts (≈) assume the structure as drawn. Read-outs that look alike come from different tables or passages of the source.

Test [1] deals with L-1 (Stenotrophomonas maltophilia, UniProt P52700). Kind of test: Indirect reagent disk test, antibiotic inactivation. The note with it: enzyme L-1; indirect method. Format: cell-based. The text has this: (§1) • 1. […] Performing and Interpreting the Test • 1.
Chain of L-1 (P52700 34-290): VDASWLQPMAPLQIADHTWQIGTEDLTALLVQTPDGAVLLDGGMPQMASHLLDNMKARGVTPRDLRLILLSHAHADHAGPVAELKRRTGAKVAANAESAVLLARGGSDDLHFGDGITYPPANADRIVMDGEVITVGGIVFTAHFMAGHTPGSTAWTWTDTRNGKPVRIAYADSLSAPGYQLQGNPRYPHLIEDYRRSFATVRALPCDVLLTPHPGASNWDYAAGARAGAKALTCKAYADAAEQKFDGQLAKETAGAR
The target of test [2] is OXA-5 (Pseudomonas aeruginosa, UniProt Q00982). Described as above. The class given is cell-based. The note with it: enzyme OXA-5; indirect method.
Chain of OXA-5 (Q00982 20-267): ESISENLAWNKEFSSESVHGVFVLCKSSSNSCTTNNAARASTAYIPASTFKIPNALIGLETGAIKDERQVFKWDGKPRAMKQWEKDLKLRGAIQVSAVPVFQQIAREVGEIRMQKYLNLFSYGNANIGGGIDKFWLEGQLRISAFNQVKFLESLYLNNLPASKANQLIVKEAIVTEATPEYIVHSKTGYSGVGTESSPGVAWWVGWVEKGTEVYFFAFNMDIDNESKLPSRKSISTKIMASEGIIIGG
Protocol: (§3) The indirect method was performed essentially as described in Example 4, except the antibiotic disks were as indicated. An indentation of a zone of inhibition around the antibiotic dish was interpreted as positive for presence of antibiotic-inactivating factor.
For test [3], the system named is OXA-6. Described as above. The class given is cell-based. To be noted: enzyme OXA-6; indirect method.
Protocol: as §3
The target in test [4] is OXA-2 (Escherichia coli, UniProt P0A1V9). The test is described as above. Format: cell-based. To be noted: enzyme OXA-2; indirect method.
Chain of OXA-2 (P0A1V9 22-275): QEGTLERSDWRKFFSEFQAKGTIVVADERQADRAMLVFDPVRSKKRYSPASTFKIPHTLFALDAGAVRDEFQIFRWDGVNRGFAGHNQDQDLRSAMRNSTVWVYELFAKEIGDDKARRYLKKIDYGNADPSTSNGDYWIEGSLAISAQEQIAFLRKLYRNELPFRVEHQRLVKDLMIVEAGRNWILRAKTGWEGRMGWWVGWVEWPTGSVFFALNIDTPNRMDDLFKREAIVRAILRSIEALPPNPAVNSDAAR
Protocol: as §3
Test [5] has as its target OXA-3 (Pseudomonas aeruginosa, UniProt Q51429). Described as above. The note with it: enzyme OXA-3; indirect method. Format: cell-based.
Excerpt: (§4) A solution of equal parts of physiological saline and Tris EDTA (Sigma Chemicals) is made. • 2. A 20 microliter aliquot of the permeabilizing agent solution was placed onto a filter paper disk and allowed to dry. […] The filter paper disk impregnated with the permeabilizing agent was rehydrated with 20 microliters of sterile physiological saline. • 2. Using a cotton swab or loop, a test organism was rubbed onto the rehydrated disk. • 3. A Mueller Hinton Agar plate was inoculated with a 0.5 McFarland of E. coli ATCC 25922. • 4. A cefoxitin disk was placed onto the surface of the agar plate. The rehydrated disk inoculated with the test organism next was placed next to the cefoxitin disk, at a distance of about 0.5-1.0 mm. • 5. The agar plate was incubated at 37° C. for about 16 hours, or overnight. • 6. Distortion of the cefoxitin zone was interpreted as a positive result (i.e., the presence of an antibiotic-inactivating factor was detected), whereas lack of distortion of the cefoxitin zone was interpreted as a negative result.
as §3
In test [6] the test system is ACT-1. The test is described as above. The class given is cell-based. The note with it: enzyme ACT-1; indirect method.
Excerpt: as §4
(§5) An indentation of a zone of inhibition around the antibiotic dish was interpreted as positive for presence of antibiotic-inactivating factor.
The test system of test [7] is OXA-4. The test is described as above. The class given is cell-based. The note with it: enzyme OXA-4; indirect method.
Protocol: as §3
Test [8] has as its target SHV-1 (Klebsiella pneumoniae, UniProt P0AD64). The test is described as above. To be noted: enzyme SHV-1; indirect method. The class given is cell-based.
Excerpt: as §4, §3
Test [9] deals with FOX-1. Described as above. Format: cell-based. To be noted: enzyme FOX-1; indirect method.
Excerpt: as §4, §3
Test [10] concerns AmpC. The note with it: enzyme AmpC; indirect method.
Excerpt: as §4, §5
In test [11] the test system is LAT-1. Kind of test: Indirect reagent disk test, antibiotic inactivation. Format: cell-based. The note with it: enzyme LAT-1; indirect method.
Excerpt: as §1

Test [12] deals with PSE-1 (Pseudomonas aeruginosa, UniProt Q03170). The test is described as above. Format: cell-based. The note with it: enzyme PSE-1; indirect method.
Chain of PSE-1 (Q03170 18-288): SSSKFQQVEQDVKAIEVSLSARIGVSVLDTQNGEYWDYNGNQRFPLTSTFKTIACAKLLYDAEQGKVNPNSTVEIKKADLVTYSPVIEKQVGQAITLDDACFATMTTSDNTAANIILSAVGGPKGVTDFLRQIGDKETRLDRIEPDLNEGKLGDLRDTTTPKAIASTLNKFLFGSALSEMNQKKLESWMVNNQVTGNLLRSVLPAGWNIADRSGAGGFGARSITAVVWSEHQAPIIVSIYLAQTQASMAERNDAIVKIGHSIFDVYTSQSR
Excerpt: as §1

Test [13] concerns E. coli V1104. Kind of test: Spectrophotometric hydrolysis assay of β-lactamase released by permeabilizing agent, nitrocefin as substrate. Format: cell-based. The method, then:
(§2) H., et al., A.A.C. 1:283-288 (1972). […] The nitrocefin was prewarmed to 37° C.
The experiment in Example 1 was repeated using E. coli V1104 to evaluate a variety of permeabilizing agents. Nitrocefan was the hydrolysis substrate.

In test [14] the test system is TEM-46. The class given is cell-based. To be noted: enzyme TEM-46; indirect method.
Protocol: as §3
Test [15] has as its system Class A Carbapenemases. Nature of the test: Indirect TE disk test for detection of Class A Carbapenemases. Format: cell-based. The note with it: for CACs detected by indirect TE disk test: 21 CAC-producing strains, E. coli ATCC 25922 lawn; for False positive results in indirect TE disk test: strains producing non-CAC enzymes (metallo/OXA carbapenemases, AmpC, ESBLs). The method, then:
Methods: 21 strains that produced Class A Carbapenemases (“CACs”) comprising 12 Klebsiella pneumoniae, 5 Enterobacter cloacae, 2 Escherichia coli, and 2 Serratia marcescens; 10 strains of Acinetobacter baumannii, Pseudomonas aeruginosa, and S. marcescens that produced either a metallo-beta-lactamase or an OXA carbapenemases, and 11 strains of Enterobacteriaceae that produced either AmpC β-lactamases or ESBLs were investigated. The test was performed essentially as described in Example 5, with any changes noted below. The indirect test involved inoculation of the surface of a Mueller-Hinton (MH) agar plate with a lawn of E. coli ATCC 25922, not the test organism. Immediately prior to incubation, a premoistened TE disk was inoculated with several colonies of the test organism and placed face down on the MH agar adjacent to a disk containing one of the carbapenems, imipenem (IPM), meropenem (MER), or ertapenem (ERT). After overnight incubation, an indentation of the zone inhibition was interpreted as positive.

For test [16], the target named is SHV-4 (Klebsiella pneumoniae, UniProt P37323). Kind of test: Indirect reagent disk test, antibiotic inactivation. Format: cell-based. To be noted: enzyme SHV-4; indirect method.
Chain of SHV-4 (P37323 whole entry): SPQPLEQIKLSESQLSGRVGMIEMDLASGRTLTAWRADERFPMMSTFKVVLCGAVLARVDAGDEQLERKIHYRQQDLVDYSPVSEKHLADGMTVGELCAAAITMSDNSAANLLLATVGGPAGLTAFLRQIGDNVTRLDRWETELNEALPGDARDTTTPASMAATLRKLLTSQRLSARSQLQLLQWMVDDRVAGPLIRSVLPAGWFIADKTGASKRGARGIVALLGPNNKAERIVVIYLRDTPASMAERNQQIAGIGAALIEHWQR
Excerpt: as §4, §3
In test [17] the test system is Klebsiella spp. isolates. Nature of the test: Antimicrobial susceptibility by NCCLS microdilution (MIC). Format: cell-based. The method, then:
Thirty recent isolates of Klebsiella spp. were collected from patients in United States hospitals.
Antimicrobial susceptibility was determined by NCCLS microdilution methodology using an investigational Microscan dehydrated panel.
For orientation: In broth dilution the organism is exposed to a series of concentrations in liquid medium.

Test [18] deals with SHV-2 (Escherichia coli, UniProt P0A9Z7). Kind of test: Indirect reagent disk test, antibiotic inactivation. The class given is cell-based. The note with it: enzyme SHV-2; indirect method.
Chain of SHV-2 (P0A9Z7 22-286): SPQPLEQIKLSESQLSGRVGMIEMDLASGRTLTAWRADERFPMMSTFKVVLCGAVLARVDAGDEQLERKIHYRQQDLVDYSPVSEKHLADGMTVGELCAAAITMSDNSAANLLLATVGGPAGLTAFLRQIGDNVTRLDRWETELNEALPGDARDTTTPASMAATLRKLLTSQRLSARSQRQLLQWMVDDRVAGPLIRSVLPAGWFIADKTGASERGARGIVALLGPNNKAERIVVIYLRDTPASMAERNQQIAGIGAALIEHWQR
Excerpt: as §4, §3
Test [19] relates to E. coli MISC 208 (which produces the extended spectrum β-lactamase SHV-2). To be noted: 0° C.
Protocol: In this Example, E. coli MISC 208 (which produces the extended spectrum β-lactamase SHV-2) was used as a test organism and nitrocefin was the substrate in spectrophotometric hydrolysis assays. The E. coli strain was harvested directly into 100 microliters of Mueller Hinton Broth and mixed with 100 microliters of the permeabilizing agent.
In the hydrolysis assay, units of activity are calculated as:
Briefly, a 100 μM solution of nitrocefin was used as a substrate. The nitrocefin was prewarmed to 37° C. The hydrolysis assay was performed at 37° C. at a wavelength of 389.5 with an extinction coefficient of −0.024. An appropriate cuvette was filled with 0.9 ml of the prewarmed nitrocefin substrate and 100 ul of permeabilized bacterial suspension was added. The contents of the cuvette were immediately mixed by inversion and the cuvette was placed in a spectrophotometer. Absorbance was assayed at 5-second intervals for up to 5 minutes with the 37° C. temperature maintained by means of a circulating water bath that warmed the cuvette block. When the assay was complete, the activity was calculated according to the above formula.
In test [20] the test system is β-lactamases of Klebsiella isolates (AmpC). Kind of test: Isoelectric focusing with inhibitor overlays. The class given is biochemical, Klebsiella spp. The note with it: nine of ten positive Klebsiella isolates; 1000 μM overlay. The method, then: Crude sonicates were subjected to analytical isoelectric focusing (IEF) on an ampholine polyacrylamide gel (pH range 3.5-9.5) on a flatbed apparatus (Multiphor LKB). Inhibitor overlays of the IEF gel were performed with 1000 μM clavulanic acid and cloxacillin.

Test [21] has as its system E. coli MISC 208. Nature of the test: Spectrophotometric hydrolysis assay of β-lactamase released by permeabilizing agent, cefaclor as substrate. The class given is cell-based. The method, then: as §2
The experiment in Example 1 was repeated using E. coli MISC 208 and cefaclor as substrate in the hydrolysis assays.

Chain of SHV-1 (P0AD64 22-286): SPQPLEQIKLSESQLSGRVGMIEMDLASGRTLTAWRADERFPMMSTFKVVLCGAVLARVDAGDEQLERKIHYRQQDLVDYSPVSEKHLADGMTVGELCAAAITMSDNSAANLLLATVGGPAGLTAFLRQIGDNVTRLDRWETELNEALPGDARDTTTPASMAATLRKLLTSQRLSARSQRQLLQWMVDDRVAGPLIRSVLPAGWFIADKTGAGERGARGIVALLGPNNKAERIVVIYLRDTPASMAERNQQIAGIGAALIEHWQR
Chain of OXA-3 (Q51429 22-275): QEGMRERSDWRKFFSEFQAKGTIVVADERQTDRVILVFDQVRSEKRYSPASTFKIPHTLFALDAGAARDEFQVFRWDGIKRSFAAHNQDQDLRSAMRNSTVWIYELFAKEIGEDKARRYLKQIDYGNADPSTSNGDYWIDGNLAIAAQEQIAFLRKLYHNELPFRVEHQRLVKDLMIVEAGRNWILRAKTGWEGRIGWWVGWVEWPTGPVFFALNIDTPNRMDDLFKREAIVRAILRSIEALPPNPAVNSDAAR

Turning to `CC1(C)S[C@@H]2[C@H](NC(=O)[C@H](N)c3ccccc3)C(=O)N2[C@H]1C(=O)O` [AM, ampicillin], the “Reagent disk test result (indentation of inhibition zone = antibiotic inactivation)” value in test [1] is given as “N”.

In the case of `C[C@H]1[C@H](NC(=O)/C(=N\OC(C)(C)C(=O)O)c2csc(N)n2)C(=O)N1S(=O)(=O)O` [Aztreonam, aztreonam], the “Reagent disk test result (indentation of inhibition zone = antibiotic inactivation)” value in test [2], in test [3], in test [4], in test [5], in test [6] and in [7] was “N” each time. Moreover, the “Reagent disk test result (indentation of inhibition zone = antibiotic inactivation)” value in test [8], in [9], in test [10], in test [11], in test [12] and in test [1] was “N” each time. In addition, in test [13], the “Units of β-lactamase Activity (Nitrocefin as substrate)” value (from here on “Units … (Nitrocefin as substrate)”) is on record as 210.

Regarding `CO[C@@]1(NC(=O)CSCC#N)C(=O)N2C(C(=O)O)=C(CSc3nnnn3C)CS[C@@H]21` [CMZ, cefmetazole], the figures for the “Reagent disk test result (indentation of inhibition zone = antibiotic inactivation)” value in [12] and in test [14] were “P^m” and “N”, respectively.

With `CO/N=C(\C(=O)N[C@@H]1C(=O)N2C(C(=O)O)=C(CSc3nc(=O)c(O)nn3C)CS[C@H]12)c1csc(N)n1` [CRO, ceftriaxone], the “Reagent disk test result (indentation of inhibition zone = antibiotic inactivation)” value in [2], in test [4], in [5], in test [7], in test [12] and in [1] was “N” in each case.

As for `CO/N=C(\C(=O)N[C@@H]1C(=O)N2C(C(=O)O)=C(COC(C)=O)CS[C@H]12)c1csc(N)n1` [CTX, cefotaxime], the “Reagent disk test result (indentation of inhibition zone = antibiotic inactivation)” value in [2] is given as “N”; in [3], “WP?”; in test [4] it was “N”; in test [5] it was “N”; in [12], “N”; in test [1], “N”. In addition, in test [14], the “Reagent disk test result (indentation of inhibition zone = antibiotic inactivation)” value is “N”.

Turning to `C[C@@H](O)[C@H]1C(=O)N2C(C(=O)O)=C(S[C@@H]3CN[C@H](C(=O)Nc4cccc(C(=O)O)c4)C3)[C@H](C)[C@H]12` [ERT, ertapenem], in test [15], the “CACs detected by indirect TE disk test” value is “all” and the “False positive results in indirect TE disk test” value was “no false positive results”.

Consider `CO[C@@]1(NC(=O)Cc2cccs2)C(=O)N2C(C(=O)O)=C(COC(N)=O)CS[C@@H]21` [FOX, cefoxitin], for which the “Reagent disk test result (indentation of inhibition zone = antibiotic inactivation)” value in test [2] is given as “N”; in test [3], “N”; in test [16] it was “N”; in test [7], “N”; in [8], “N”; in test [12], “N^n”. In addition, the “Reagent disk test result (indentation of inhibition zone = antibiotic inactivation)” value in test [1], in [18] and in test [14] was “N” in each case. The MIC in test [17] (thirty Klebsiella spp. isolates) was not below 16 µg/mL; in [17] (thirty isolates of Klebsiella spp., read-out: MIC), not below 16 µg/mL.

Turning to `C[C@@H](O)[C@H]1C(=O)N2C(C(=O)O)=C(SCCN=CN)C[C@H]12` [IPM, imipenem], the “Reagent disk test result (indentation of inhibition zone = antibiotic inactivation)” value in [3], in [7], in [9] and in [14] was “N” throughout. Besides, the MIC in test [17] (the one positive Klebsiella isolate producing a carbapenem-hydrolyzing enzyme, read-out: MIC) is 64 µg/mL (≈ 214 µM).

Turning to `C[C@@H](O)[C@H]1C(=O)N2C(C(=O)O)=C(S[C@@H]3CN[C@H](C(=O)N(C)C)C3)[C@H](C)[C@H]12` [MEM, meropenem], the “Reagent disk test result (indentation of inhibition zone = antibiotic inactivation)” value is given as “N” in test [2]; “N” in [3]; “WP?” in test [4]; “N” in test [16]; “N” in test [5]; “N” in [7]. The “Reagent disk test result (indentation of inhibition zone = antibiotic inactivation)” value in test [8], in test [9], in [11], in [1], in [18] and in test [14] was “N” throughout. Besides, the “CACs detected by indirect TE disk test” value in test [15] is listed as 19/21. Also, in [15], the “False positive results in indirect TE disk test” value is “no false positive results”.

As to `CCN1CCN(C(=O)N[C@@H](C(=O)N[C@@H]2C(=O)N3[C@@H]2SC(C)(C)[C@@H]3C(=O)O)c2ccccc2)C(=O)C1=O` [Piperacillin], in test [13], the “Units … (Nitrocefin as substrate)” value is recorded as 202.

As for `NC(CO)(CO)CO` [Tris], the “Units … (Nitrocefin as substrate)” value in test [19] is 41.

For the molecule `Cc1onc(-c2ccccc2Cl)c1C(=O)N[C@@H]1C(=O)N2[C@@H]1SC(C)(C)[C@@H]2C(=O)O` [cloxacillin], the “Inhibition of β-lactamases (pIs 7.2, 7.7 or ≧9.0) in IEF inhibitor overlay” value in [20] is on record as “inhibited”.

On to Polymyxin B, for which the figures for the “Units of β-lactamase Activity (Cefaclor as substrate)” value in test [21] (agent 10 μg/ml) and in test [21] (agent 30 μg/ml) were 3.8 and 15, respectively.

Take benzalkonium chloride: the “Units of β-lactamase Activity (Cefaclor as substrate)” value in test [21] (agent 200 μg/ml) was determined as 16.

What is called MIC is the smallest concentration in the dilution series that meets the test's criterion for growth inhibition.
